A short description of the data set: solvent given as SMILES.
Where [1] appears, read: in c1cc(-n2c3ccccc3c3ccccc32)cc(-n2c3ccccc3c3ccccc32)c1.

`CC(=O)Nc1ccc2c3cccc4cccc(c5cccc1c52)c43`: the fluorescence lifetime came to 3.8 ns (in CCOC(C)=O) and 4.5 ns (in CS(C)=O).
In the case of `CCCN1C(=O)c2c3c(c4c(c2C1=O)CCc1cc(-c2ccc(N(C)C)cc2)c(OC)cc1-4)-c1cc(OC)c(-c2ccc(N(C)C)cc2)cc1CC3`, the fluorescence lifetime (in C1CCCCC1) amounted to 5.13 ns; the fluorescence lifetime (in C1CCOC1) was 0.93 ns; the fluorescence lifetime (in CCOC(C)=O) was 0.85 ns; the fluorescence lifetime (in Cc1ccccc1) came out at 5.64 ns; the fluorescence lifetime (in ClCCl) is 0.38 ns.
As for `Nc1ncc2nc[nH]c2n1`, under “in O”, the fluorescence lifetime amounted to 11.3 ns.
In the case of `C(C#Cc1ccc2ccc3cccc4ccc1c2c34)#Cc1cccc2ccccc12`, the fluorescence lifetime runs as follows: (in C1CCCCC1) 0.8 ns; (in CC#N) 1.2 ns; (in CO) 1.1 ns; (in ClCCl) 1.1 ns.
The compound `C[Si](C)(C)C#Cc1ccc2c3cccc4cccc(c5cccc1c52)c43` had a fluorescence lifetime (in C1CCCCC1) of 4.2 ns.
As to `Cc1cc(C)c(B(c2c(C)cc(C)cc2C)c2cc3cccc4c(B(c5c(C)cc(C)cc5C)c5c(C)cc(C)cc5C)cc5cccc2c5c34)c(C)c1`, where the note is “in CCCCCC”, the fluorescence lifetime was 5 ns.
Compound `CC(C)(C)c1ccc(Oc2cc3c4c(cc(Oc5ccc(C(C)(C)C)cc5)c5c6c(Oc7ccc(C(C)(C)C)cc7)cc7c8c(cc(Oc9ccc(C(C)(C)C)cc9)c(c2c45)c86)C(=O)OC7=O)C(=O)OC3=O)cc1` showed a fluorescence lifetime (in ClC(Cl)Cl) of 6.4 ns.
On to `CC(C)(C)c1ccc(C2=C(c3ccc(N(c4ccccc4)c4ccccc4)cc3)S(=O)(=O)c3c2sc(-c2ccc(N(c4ccccc4)c4ccccc4)cc2)c3-c2ccc(C(C)(C)C)cc2)cc1`, for which the fluorescence lifetime (in C1CCOC1) is 3.03 ns.
Turning to `CC(C)(C)c1cc2c3cc(C(C)(C)C)c(-c4cc5cc6c7cccc8cccc(c9cc(C(C)(C)C)cc(c5cc4C(C)(C)C)c96)c87)cc3cc3c4cccc5cccc(c(c1)c23)c54`, where the note is “in CC1CCCCC1”, the fluorescence lifetime is 3.4 ns.
On to `COc1ccc2c3ccc(OC)cc3c3cc4c(C)cc(=O)oc4cc3c2c1`, for which, for the setting “in ClC(Cl)Cl”, the fluorescence lifetime was 6.2 ns.
On to `CC(C)(C)[Si](C)(C)c1cccc2ccccc12`, for which the fluorescence lifetime (in C1CCCCC1) worked out at 56 ns.
For the setting “in ClCCl”, `CC(C)(C)c1ccc(N(c2ccccc2)c2ccc3ccc4c(N(c5ccccc5)c5ccc(C(C)(C)C)cc5)ccc5ccc2c3c54)cc1` showed a fluorescence lifetime of 6.2 ns.
For `O=C1O[B-]2(OC1=O)OC(c1ccccc1)=CC(c1ccc3ccccc3c1)=[O+]2`, the fluorescence lifetime runs as follows: (in CC#N) 5.4 ns; (in ClC(Cl)(Cl)Cl) 1.6 ns.
For `CCC1=C(C)C2=C(C)c3cc(I)c(I)n3[B-](F)(F)[N+]2=C1C`, the fluorescence lifetime was 1.02 ns (in C1CCCCC1); 0.82 ns (in CC(C)=O); 0.939 ns (in CCO); 0.893 ns (in CCOC(C)=O); 0.882 ns (in CO); 0.779 ns (in OCC(F)(F)F).
Turning to `COc1ccc(C#Cc2c3ccccc3c(C#Cc3ccc(OC)cc3)c3cc4ccccc4cc23)cc1`, the fluorescence lifetime (in ClCCl) came out at 7 ns.
On to `N#Cc1cc(-n2c3ccccc3c3ncccc32)c(-n2c3ccccc3c3ncccc32)cc1C#N`, for which, under setting [1], the fluorescence lifetime is 70 ns.
`CC(C)(C)NC(=O)c1cc2ccccc2c2ccc3c4ccccc4c4ccccc4c3c12` came in with a fluorescence lifetime (in ClCCl) of 3.28 ns.
On to `Cc1cc(-c2ccccc2)nc2c1ccc1nc(-c3ccccc3)cn12`, for which the fluorescence lifetime runs as follows: (in CC#N) 6.97 ns; (in CCCCOC(C)=O) 6.04 ns; (in CCOC(C)=O) 5.98 ns; (in CO) 5.18 ns; (in c1ccccc1) 5.55 ns.
`C=CC(=O)Oc1ccc2cc(C=C)c(=O)oc2c1` yielded a fluorescence lifetime (in CC#N) of 2.81 ns.
Regarding `CN1CCN(CCCN2c3ccccc3Sc3ccc(C(F)(F)F)cc32)CC1`, the fluorescence lifetime is 2.68 ns (in CC#N), 2.52 ns (in CO) and 3.01 ns (in O).
The compound `CCCCCCCCCCCCN1C(=O)c2c(c3ccc4cc(-c5ccc(C=O)cc5)c(OC)cc4c3c3c2ccc2cc(-c4ccc(C=O)cc4)c(OC)cc23)C1=O` had a fluorescence lifetime (in ClCCl) of 6.45 ns.
As for `Cc1ccc(C2=C3C=CC(Cl)=[N+]3[B-](F)(F)n3c(Cl)ccc32)cc1`, the fluorescence lifetime reads like this: (in C1CCCCC1) 2.1 ns; (in C1CCOC1) 2.1 ns; (in CC#N) 1.87 ns; (in CCOC(C)=O) 2.07 ns; (in CO) 1.88 ns; (in Cc1ccccc1) 3.26 ns. Also, under “in ClC(Cl)Cl”, the fluorescence lifetime stood at 3.66 ns.
As for `CN(C)c1ccc2cc3c(cc2c1)OCCN=C3`, where the note is “in CS(C)=O”, the fluorescence lifetime worked out at 4.4 ns.
As to `C(=C\c1ccc(-n2c3ccccc3c3ccccc32)cc1)/c1ccc(-c2ccc(/C=C/c3ccc(-n4c5ccccc5c5ccccc54)cc3)cc2)cc1`, the fluorescence lifetime (in Cc1ccccc1) came to 0.87 ns and the fluorescence lifetime (in c1ccc2c(c1)c1ccccc1n2-c1ccc(-c2ccc(-n3c4ccccc4c4ccccc43)cc2)cc1) is 1.3 ns.
Take `Nc1nc2ccc([N+](=O)[O-])cc2s1`: the fluorescence lifetime is 4.11 ns (in CC#N) and 3.53 ns (in ClCCl).
Where the note is “in CCCCCC”, `COC(=O)c1c(C(=O)OC)c2ccc(C)nn2c1C` registered a fluorescence lifetime of 14.1 ns.
`N#Cc1cc(N2c3ccccc3Sc3ccccc32)cc(N2c3ccccc3Sc3ccccc32)c1`: for the setting “in Cc1ccccc1”, the fluorescence lifetime came to 22.6 ns.
Turning to `CN(C)c1ccc(C2=Nc3scc(-c4ccc(C#N)cc4)[n+]3[B-](F)(F)O2)cc1`, the fluorescence lifetime (in C1CCOC1) is 1.69 ns.
For the compound `N#Cc1cc(C#N)c(-n2c3ccccc3c3ccccc32)cc1-n1c2ccccc2c2ccccc21`, under “in Cc1ccccc1”, the fluorescence lifetime amounted to 9 ns.
In the case of `CCN(CC)c1ccc2cc(-c3nc4ccccc4n3C)c(=O)oc2c1`, the fluorescence lifetime (in CC#N) is 2.8 ns.
For the setting “in ClC(Cl)Cl”, `CC[Si](CC)(CC)c1cc2ccc3cccc4ccc(c1C(=O)NC(C)(C)C)c2c34` returned a fluorescence lifetime of 7.63 ns.
Regarding `CCCCCCOc1ccc(C#Cc2ccc(C#CC#Cc3ccc(C#Cc4ccc(OCCCCCC)c(OCCCCCC)c4)c4nsnc34)c3nsnc23)cc1OCCCCCC`, the fluorescence lifetime by setting is: (in CN(C)C=O) 0.5 ns; (in COc1ccccc1) 2.2 ns; (in Cc1ccccc1) 1.9 ns; (in ClC(Cl)Cl) 2.6 ns; (in ClCCCl) 2 ns; (in ClCCl) 2.5 ns.
For the compound `O=C([O-])c1ccccc1-c1c2ccc(=O)cc-2oc2cc([O-])ccc12`, the fluorescence lifetime runs as follows: (in CC(C)O) 4.36 ns; (in CCCCCCCCO) 4.52 ns; (in CCCCCCO) 4.48 ns; (in CCCCO) 4.4 ns; (in CCCO) 4.42 ns; (in CCO) 4.25 ns. Moreover, the fluorescence lifetime runs as follows: (in CO) 4.28 ns; (in O) 4.16 ns; (in [2H]O[2H]) 4.36 ns.
On to `COc1ccc(-c2nc(-c3ccc(-c4nc(-c5ccc(OC)cc5)c(-c5ccc(OC)cc5)[nH]4)s3)[nH]c2-c2ccc(OC)cc2)cc1`, for which, under “in CC#N”, the fluorescence lifetime came out at 1.42 ns.
Consider `Cc1ccccc1C1=C2C=c3c(oc4ccccc34)=[N+]2[B-](F)(F)n2c1cc1c3ccccc3oc12`, for which the fluorescence lifetime reads like this: (in C1CCCCC1) 4.21 ns; (in CCOC(C)=O) 4.41 ns; (in CO) 4.44 ns.
Turning to `c1ccc2c(c1)[nH]c1c3[nH]c4ccccc4c3c3nsnc3c21`, the fluorescence lifetime reads like this: (in CN(C)C=O) 1.3 ns; (in Cc1ccccc1) 1.02 ns; (in ClCCl) 1.27 ns.
`F[B-]1(F)OC(c2ccc(N3CCCC3)cc2)=Cc2cccc[n+]21` came in with a fluorescence lifetime (in ClC(Cl)Cl) of 2.72 ns.
Regarding `CC1(C)c2ccccc2N(c2ccc(-c3nc(C#N)c(C#N)nc3-c3ccc(N4c5ccccc5C(C)(C)c5ccccc54)cc3)cc2)c2ccccc21`, under “in c1cc(-c2cccc(-n3c4ccccc4c4ccccc43)c2)cc(-n2c3ccccc3c3ccccc32)c1”, the fluorescence lifetime is 30 ns.
As for `O=C1c2ccccc2C(=O)c2cc(-c3ccc(N(c4ccccc4)c4ccccc4)cc3)ccc21`, the fluorescence lifetime by setting is: (in CCCCCC) 5.51 ns; (in CCOC(C)=O) 0.15 ns; (in CCOCC) 2.81 ns; (in Cc1ccccc1) 6.79 ns; (in ClC(Cl)(Cl)Cl) 8.82 ns.
Under “in Cc1ccccc1”, `c1ccc(-c2cc(-c3ccccc3)cc(-c3ccc4c(c3)C3(c5cc(-c6cc(-c7ccccc7)cc(-c7ccccc7)c6)ccc5-4)c4ccccc4-c4c3c3c5ccccc5ccc3c3ccccc43)c2)cc1` yielded a fluorescence lifetime of 3.07 ns.
As for `CN(C)CCCN1c2ccccc2Sc2ccccc21`, the fluorescence lifetime runs as follows: (in CC#N) 1.85 ns; (in CO) 1.75 ns; (in O) 2.04 ns.
For the compound `CN(C)c1ccc(/C=C/c2cc[n+](CCCCCCCCCCCC[n+]3ccc(/C=C/c4ccc(N(C)C)cc4)cc3)cc2)cc1`, where the note is “in ClC(Cl)Cl”, the fluorescence lifetime worked out at 0.203 ns.
The compound `O=S(=O)(c1ccc(N2c3ccccc3N(c3ccccc3)c3ccccc32)cc1)c1ccc(N2c3ccccc3N(c3ccccc3)c3ccccc32)cc1` displayed a fluorescence lifetime (in Cc1ccccc1) of 5.6 ns and a fluorescence lifetime under setting [1] of 10 ns.
Consider `CN(C)c1ccc(-c2ccc(-c3nc(C#N)c(C#N)n3C)cc2)cc1`, for which the fluorescence lifetime by setting is: (in C1CCCCC1) 1 ns; (in ClC(Cl)Cl) 2 ns.
For the setting “in C1CCOC1”, `CCC1(CC)c2cc(B(c3c(C)cc(C)cc3C)c3c(C)cc(C)cc3C)ccc2-c2c1c1c(c3c2C(CC)(CC)c2cc(N(c4ccccc4)c4ccccc4)ccc2-3)C(CC)(CC)c2cc(N(c3ccccc3)c3ccccc3)ccc2-1` gave a fluorescence lifetime of 14.4 ns.
On to `CCN(CC)c1ccc2cc(/C=C/C(=C(C#N)C#N)c3ccc(N(c4ccccc4)c4ccccc4)cc3)c(=O)oc2c1`, for which the fluorescence lifetime is, setting by setting: (in CC(C)=O) 0.59 ns; (in CCOC(C)=O) 1.31 ns; (in CN(C)C=O) 0.33 ns; (in CS(C)=O) 0.33 ns; (in Cc1ccccc1) 0.84 ns; (in ClCCl) 2.88 ns.
For the setting “in ClC(Cl)Cl”, `CCCC1(CCC)c2cc(C=C(C#Cc3ccccc3)C#Cc3ccccc3)ccc2-c2ccc(C=C(C#Cc3ccccc3)C#Cc3ccccc3)cc21` had a fluorescence lifetime of 0.6 ns.
On the same count and under the same terms, the value for `F[B-]1(F)OC(c2ccc(C(F)(F)F)cc2)=Cc2c3ccccc3cc[n+]21` was 0.14 ns.
In the case of `c1ccc(-c2ccc(-c3nc(-n4c5ccccc5c5ccc6c7ccccc7n(-c7ccccc7)c6c54)nc(-n4c5ccccc5c5ccc6c7ccccc7n(-c7ccccc7)c6c54)n3)cc2)cc1`, the fluorescence lifetime (in Cc1ccccc1) was determined as 8.7 ns.

For the origin of these results see the Deep4Chem optical property database.
